# Measurements as given in patent US20160220710A1, “COMPOSITIONS AND METHODS FOR DELIVERING PHARMACEUTICAL AGENTS” (THE REGENTS OF THE UNIVERSITY OF MICHIGAN, priority 2015, published 2016).
# “Also recorded” adds a separate entry of the source.
# Assays:
# footpad swelling = assay: Footpad injections alone in naïve mice; assay type: in vivo; conditions: 2 mM, 30 μl
# Experimental: (§1) Mice Carrageenan Footpad Edema Model. Carrageenan (C1867, Sigma-Aldrich®, 2% in PBS, 30 μl) was injected into the right footpad while PBS (30 μl) was injected in the left footpad as a negative control. For preliminary testing of CFZ as an anti-inflammatory agent, 8-week orally fed mice (CFZ and control) were used. For testing of CFZ in soluble and microcrystal form, naïve 4-5 week old mice were injected with carrageenan first followed by injection of CFZ-A (2 mM in DMSO, 30 μl), CLDIs (2 mM equivalent in PBS, 30 μl) or CFZ-HCl (2 mM equivalent in PBS, 30 μl) at 48 h post carrageenan injection. For control experiments, CFZ-A, CLDIs and CFZ-HCl were injected into the right footpads of naïve 4-5 week old mice. DMSO was used as a control for CFZ-A in the left footpad whereas PBS was used as a control for CLDIs and CFZ-HCl. Footpads were measured (length—l, width—w, three thicknesses—t1, t2, t3) at various time points using a digital vernier calliper and changes in the swelling based on volume of the foot was calculated as per above.
# [1] = tested on: carrageenan-based footpad-edema model; assay: Carrageenan footpad edema model, local injection 48 h post carrageenan; assay type: in vivo, mice; conditions: 30 μl, injected 48 h post carrageenan; for subsequent footpad swelling after local injection: 2 mM
# Experimental: as §1
SMILES,inflammation/swelling after injection alone (footpad swelling),subsequent footpad swelling after local injection [1],footpad swelling inhibition beyond 24 h post therapy ([1]; 2 mM equivalent)
CC(C)N=c1cc2n(-c3ccc(Cl)cc3)c3ccccc3nc-2cc1Nc1ccc(Cl)cc1.Cl [CFZ-A],measurable inflammatory response initially; also recorded: some swelling,did not lead to a measurable anti-inflammatory response,–
CC(C)N=c1cc2n(-c3ccc(Cl)cc3)c3ccccc3nc-2cc1Nc1ccc(Cl)cc1.Cl [CFZ-HCl],did not induce any measurable inflammation; also recorded: no signs of swelling,inhibited for 24 h post therapy,sustained for a further 24 h
